Data on eight molecules can be found in ChEMBL document CHEMBL3046532, “QSAR analysis on PfPK7 inhibitors using HQSAR, CoMFA, and CoMSIA” (Med Chem Res, 2012).

For the assay, the target named is T1, Putative uncharacterized protein pk7 (Plasmodium falciparum, UniProt O96214).
T1 sequence (O96214 whole entry): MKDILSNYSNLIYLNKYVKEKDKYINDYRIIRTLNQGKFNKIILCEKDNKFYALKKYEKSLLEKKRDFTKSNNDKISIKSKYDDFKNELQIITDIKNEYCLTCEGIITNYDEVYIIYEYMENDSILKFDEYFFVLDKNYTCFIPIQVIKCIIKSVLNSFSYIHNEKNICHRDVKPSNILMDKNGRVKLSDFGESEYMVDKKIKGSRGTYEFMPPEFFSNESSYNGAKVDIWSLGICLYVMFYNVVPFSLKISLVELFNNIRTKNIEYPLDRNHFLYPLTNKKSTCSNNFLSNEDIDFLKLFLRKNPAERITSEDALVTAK
Description: Inhibition of Plasmodium falciparum protein kinase 7.
The molecule `CN(Cc1ccc(F)nc1)c1ccc2ncc(-c3ccc(N)cc3)n2n1` showed an IC50 of 42 µM.

In turn, `CN(Cc1ccc(F)nc1)c1ccc2ncc(-c3ccc(CN4CCC(O)CC4)cc3)n2n1` showed an IC50 of 103 µM. The same measure for `CN(Cc1ccc(F)nc1)c1ccc2ncc(-c3ccc(Cn4ccnc4)cc3)n2n1`: 56 µM; for `CN(Cc1ccc(F)nc1)c1ccc2ncc(-c3ccc(C#N)cc3)n2n1`: 1.07 µM; for `CN(Cc1ccc(F)nc1)c1ccc2ncc(-c3ccc(CNCO)cc3)n2n1`: 34 µM. The figure for `CN(Cc1ccc(F)nc1)c1ccc2ncc(-c3ccc(CO)cc3)n2n1` is 21 µM. `CN(Cc1ccc(F)nc1)c1ccc2ncc(-c3ccc(C(N)=O)cc3)n2n1` showed an IC50 of 1.1 µM. In turn, `N#Cc1ccc(-c2cnc3ccc(N[C@H]4CCCNC4)nn23)cc1` gave an IC50 of 2.1 µM.

Broadly, the IC50 is the midpoint of a concentration-inhibition curve.
